Test results as given in patent US20030216330A1, “Parenteral, intravenous, and oral administration of oxazolidinones for treating diabetic foot infections” (PHARMACIA & UPJOHN, priority 2002, published 2003).

What was measured:
diabetic foot infection [1] = experiment: Example 3: parenteral treatment of a human with a diabetic foot infection; type: in vivo; details: 600 mg parenteral, two times daily for 7-28 days; person
Method: A 70 kilo […] with a history of diabetes and infected foot ulcerations, also known as diabetic foot, is treated with a parenteral preparation of 600 mg (S)-N-[[3-[3-fluoro-4-[4-(morpholinyl)[…]]-2-oxo-5-oxazolidinyl]methyl]acetamide. The preparation is administered two times daily for 7-28 days. The patient is evaluated by clinical observations and with x-rays for osteomyelitis, including with a “probe-to bone” test and a bone biopsy if the patient has an open wound.

isolated pathogens = experiment: Resistance of pathogens isolated in the trial to study medication; details: at baseline or developed during the trial
From the text: (§1) Resistance to ampicillin/sulbactam was documented in 1 S. aureus isolate.

[2] = test system: baseline gram-positive pathogen; experiment: Microbiological success rate in the diabetic foot infection trial; type: in vivo, human
From the text: (§2) The clinically evaluable population comprised 317 patients, most of whom were male and white with a mean age of 63 years old. Patients with critical limb ischemia were excluded, but those with osteomyelitis could be included. […] Treatment was for 7-28 days with the mean treatment duration shown below in Table 1. Patients could be switched to PO therapy at the investigator's discretion.
as §1

diabetic foot infection [3] = experiment: Open-label, comparator-controlled trial in patients with diabetic foot infection: clinical cure; type: in vivo, human
From the text: as §2
(§3) The most common baseline pathogens were S. aureus (158 isolates, 31 of which were methicillin-resistant S. aureus (MRSA), coagulase-negative staphylococci (65), enterococci (60) and Streptococcus agalactiae (52). To cover methicillin-resistant S. aureus in the aminopenicillin regimen, IV vancomycin (1 g every 12 h or per dosing guidelines) was added to the amino/β-LI treated patients with MRSA isolated from the study wound. To cover possible resistant gram-negative rods in either regimen, IV aztreonam (1-2 g, IV, every 8-12 h) was permitted in both treatment arms for suspected/documented gram-negative pathogens. This is shown below in Table 2.
Infections were defined by clinical signs and symptoms and categorized as cellulites, deep soft tissue infections, infected ulcer, septic arthritis, paronychia, abscess or osteomyelitis. […] The most common types (sometimes combined) of infections were: ulcers (78%); cellulitis (45%); deep soft tissue (15%); paronychia (6%). Most patients in both arms were treated as outpatients (66%) with only oral therapy (73%) and with a single agent (87%). Clinical characteristics of the infected sites at baseline were similar in the treatment groups; most common were tenderness (97%), induration (95%), local warmth (92%), non-purulent drainage (82%) and erythema (47%).
Debridement and other surgical procedures (short of complete resection/amputation) were allowed and wounds were off-loaded (mechanical stress on the wounded area was avoided) as needed. There were no significant differences in adverse events in the two treatment arms.

[4] = test system: aerobic gram positive bacteria; details: including streptococci, MRSA and VRE; cited from earlier work
[5] = test system: Staphylococcus agalactiae; experiment: Clinical outcome by baseline pathogen (MITT population); type: in vivo; details: baseline pathogen S. agalactiae
From the text: as §2, §3

CC(=O)NC[C@H]1CN(c2ccc(N3CCOCC3)c(F)c2)C(=O)O1 [Linezolid, (S)-N-[[3-[3-fluoro-4-(4-morpholinyl)phenyl]-2-oxo-5-oxazolidinyl]methyl]acetamide]
clinical observation of the ulcerated area after the course of treatment (diabetic foot infection [1]): tissue destruction in the ulcerated area has visibly ceased and tissue repair has begun | resistance of isolated pathogens to the study drug (isolated pathogens): None of the isolated pathogens was resistant | microbiological success rates ([2]; microbiologically evaluable (ME) patients): 72.2% | Microbiol. Efficacy (% Efficacy of the Evaluatable Population) ([2]; microbiologically evaluable population, 212 patients): 72% | Clinical Efficacy (% Efficacy of the Evaluatable Population) (diabetic foot infection [3]; clinically evaluable population, 317 patients): 83% | clinical outcome versus amino/β-LI (diabetic foot infection [3]; infected ulcers and non-osteomyelitis cases): clinically superior | clinically cured patients (diabetic foot infection [3]; infected ulcers, FIG. 2): 81.4% | Clinical cure rates (diabetic foot infection [3]; intent-to-treat (ITT) and clinically evaluable (CE) populations, FIG. 1): comparable | overall clinical and micro-biological outcomes versus amino/β-LI (diabetic foot infection [3]; mostly given alone, PO, to outpatients): at least as effective overall as amino/β-LI | clinical cure rate (diabetic foot infection [3]; patients with osteomyelitis (n=60)): 61.0% | clinical cure rate (diabetic foot infection [3]; patients without osteomyelitis): 86% | antibacterial activity [4]: active against almost all aerobic gram positive bacteria | clinical cure rate versus comparator [5]: significantly higher clinical cure rate
